According to US11285156B2, “Substituted piperazines as KRAS G12C inhibitors” (Amgen Inc., priority 2018, dated 2022):

target: GDP-bound KRAS protein (aa 1-169), containing both G12C and C118A amino acid substitutions (Homo sapiens (Human), UniProt P01116, C118A/G12C); test: Coupled nucleotide exchange assay (SOS-mediated nucleotide exchange, AlphaScreen); type: biochemical; conditions: 5 min compound pre-incubation
Sequence (P01116 other isoform, or with tags, fused parts or gaps G12C/C118A): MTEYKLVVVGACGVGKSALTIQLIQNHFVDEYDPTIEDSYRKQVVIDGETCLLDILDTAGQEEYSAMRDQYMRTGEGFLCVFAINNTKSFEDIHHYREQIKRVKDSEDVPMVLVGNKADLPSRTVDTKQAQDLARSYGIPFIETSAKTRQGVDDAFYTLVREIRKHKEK

| SMILES | Coupled exchange IC50 (5 min; μM) [µM] |
| --- | --- |
| C=CC(=O)N1C[C@H](C)N(c2nc(=O)n(-c3c(C)ccnc3C(C)C)c3nc(C45CCCCC4C5)c(Cl)cc23)C[C@H]1C (atropisomer, axis not shown; (M)) [Example 207, (M)-6-Chloro-4-[(2S,5R)-2,5-dimethyl-4-prop-2-enoyl-piperazin-1-yl]-1-(2-isopropyl-4-methyl-3-pyridyl)-7-[norcaran-1-yl]pyrido[2,3-d]pyrimidin-2-one] | 0.932 |
| C=CC(=O)N1C[C@H](C)N(c2nc(=O)n(-c3c(C)ccnc3C(C)C)c3nc(N4CCCCC4C)c(Cl)cc23)C[C@H]1C (mixture of isomers) [Example 69-12, (M)-6-Chloro-4-[(2S,5R)-2,5-dimethyl-4-prop-2-enoyl-piperazin-1-yl]-1-(2-isopropyl-4-methyl-3-pyridyl)-7-[(2SR)-2-methyl-1-piperidyl]pyrido[2,3-d]pyrimidin-2-one] | 2.88 |
| C=CC(=O)N1C[C@H](C)N(c2nc(=O)n(-c3c(C)cc(CN(C)C)cc3C(C)C)c3nc(-c4ccccc4F)c(Cl)cc23)C[C@H]1C (single isomer, unassigned) [Example 121-4] | 1.48 |
| C=CC(=O)N1C[C@H](C)N(c2nc(=O)n(-c3c(C)cc(C4CC4)nc3C(C)C)c3nc(-c4ccccc4F)c(Cl)cc23)C[C@H]1C (single isomer, unassigned) [Example 164-1] | 0.066 |

same assay, conditions: read-out: Coupled exchange IC50 (5 min; μM); 5 min compound pre-incubation

| SMILES | IC50 [µM] |
| --- | --- |
| C=CC(=O)N1C[C@H](C)N(c2nc(=O)n(-c3c(C)ccnc3C(C)C)c3nc(-c4cc(O)cc5ccccc45)c(F)cc23)C[C@H]1C (atropisomer, axis not shown; (M)) [Example 132-2, (M)-4-[(2S,5R)-2,5-dimethyl-4-prop-2-enoyl-piperazin-1-yl]-6-fluoro-7-(3-hydroxy-1-naphthyl)-1-(2-isopropyl-4-methyl-3-pyridyl)pyrido[2,3-d]pyrimidin-2-one] | 0.57 |
| C=CC(=O)N1CCN(c2nc(=O)n(-c3c(C)ccnc3C(C)C)c3nc(Cl)c(Cl)cc23)CC1CC#N (atropisomer, axis not shown; (M)) [Example 144-2, (M)-2-[4-[6,7-Dichloro-1-(2-isopropyl-4-methyl-3-pyridyl)-2-oxo-pyrido[2,3-d]pyrimidin-4-yl]-1-prop-2-enoyl-piperazin-2-yl]acetonitrile] | 24.9 |
| C=CC(=O)N1CCN(c2nc(=O)n(-c3c(C)ccnc3C(C)C)c3nc(Cl)c(Cl)cc23)CC1CC#N (atropisomer, axis not shown; (M)) [Example 144-2-1, (M)-2-[4-[6,7-Dichloro-1-(2-isopropyl-4-methyl-3-pyridyl)-2-oxo-pyrido[2,3-d]pyrimidin-4-yl]-1-prop-2-enoyl-piperazin-2-yl]acetonitrile] | 63.7 |
| C=CC(=O)N1CCN(c2nc(=O)n(-c3c(C)ccnc3C(C)C)c3nc(-c4ccccc4F)c(Cl)cc23)[C@@H]2C[C@@H]21 (atropisomer, axis not shown; (M)) [Example 222-1, (M)-4-((1R,6S)-5-Acryloyl-2,5-diazabicyclo[4.1.0]heptan-2-yl)-6-chloro-7-(2-fluorophenyl)-1-(2-isopropyl-4-methylpyridin-3-yl)pyrido[2,3-d]pyrimidin-2(1H)-one] | 0.95 |
| C=CC(=O)N1C[C@H](C)N(c2nc(=O)n(-c3c(CN4CCCC4)cccc3C(C)C)c3nc(-c4ccccc4F)c(Cl)cc23)C[C@H]1C (single isomer, unassigned) [Example 80-10-1] | 2.04 |
| C=CC(=O)N1C[C@H](C)N(c2nc(=O)n(-c3c(CN(C)C)cccc3C(C)C)c3nc(-c4ccccc4F)c(Cl)cc23)C[C@H]1C (single isomer, unassigned) [Example 80-14-1] | 1.26 |
| C=CC(=O)N1C[C@H](C)N(c2nc(=O)n(-c3c(CN(C)C)ccnc3C(C)C)c3nc(-c4ccccc4F)c(Cl)cc23)C[C@H]1C (single isomer, unassigned) [Example 80-16-2] | 0.903 |
| C=CC(=O)N1C[C@H](C)N(c2nc(=O)n(-c3c(CN(C)C)ncnc3C(C)C)c3nc(-c4ccccc4F)c(Cl)cc23)C[C@H]1C (single isomer, unassigned) [Example 80-18-1] | 1.39 |
| C=CC(=O)N1C[C@H](C)N(c2nc(=O)n(-c3c(C)cc(CN(C)C)cc3C(C)C)c3nc(-c4ccccc4F)c(F)cc23)C[C@H]1C (single isomer, unassigned) [Example 80-20-1] | 13.9 |
| C=CC(=O)N1C[C@H](C)N(c2nc(=O)n(-c3c(C)cc(CN(C)C)cc3C(C)C)c3nc(-c4c(O)cccc4F)c(F)cc23)C[C@H]1C (single isomer, unassigned) [Example 80-21-1] | 0.949 |
| C=CC(=O)N1C[C@H](C)N(c2nc(=O)n(-c3c(Cl)ncnc3C(C)C)c3nc(-c4ccccc4C)c(Cl)cc23)C[C@H]1C (single isomer, unassigned) [Example 102-6-2] | 0.726 |
| C=CC(=O)N1C[C@H](C)N(c2nc(=O)n(-c3c(C)cc(P(C)(C)=O)cc3C(C)C)c3nc(-c4ccccc4F)c(Cl)cc23)C[C@H]1C (single isomer, unassigned) [Example 102-7-2] | 5.28 |
| C=CC(=O)N1C[C@H](C)N(c2nc(=O)n(-c3c(N(C)C)ccnc3C(C)C)c3nc(-c4ccccc4C(C)C)c(Cl)cc23)C[C@H]1C (single isomer, unassigned) [Example 103-1-1] | 1.26 |
| C=CC(=O)N1C[C@H](C)N(c2nc(=O)n(-c3c(N(CC)CC)ccnc3C(C)C)c3nc(-c4ccccc4C(C)C)c(Cl)cc23)C[C@H]1C (single isomer, unassigned) [Example 103-6-1] | 1.15 |
| C=CC(=O)N1C[C@H](C)N(c2nc(=O)n(-c3c(N(C)C)ccnc3C(C)C)c3nc(-c4ccccc4C)c(Cl)cc23)C[C@H]1C (single isomer, unassigned) [Example 103-7-1] | 0.653 |
| C=CC(=O)N1C[C@H](C)N(c2nc(=O)n(-c3c(C)ccnc3C(C)C)c3nc(-c4ccccc4F)c(Cl)nc23)C[C@H]1C (single isomer, unassigned) [Example 106-6-1] | 3.67 |

| SMILES | IC50 [µM] |
| --- | --- |
| C=CC(=O)N1C[C@H](C)N(c2nc(=O)n(-c3c(CC)ncnc3C(C)C)c3nc(-c4ccccc4C)c(Cl)cc23)C[C@H]1C (single isomer, unassigned) [Example 109-2-2] | 0.226 |
| C=CC(=O)N1C[C@H](C)N(c2nc(=O)n(-c3c(N(C)C)ccnc3C(C)C)c3nc(-c4c(F)cccc4NC(=O)CC)c(Cl)cc23)C[C@H]1C (single isomer, unassigned) [Example 122-2-1] | 17.3 |
| C=CC(=O)N1C[C@H](C)N(c2nc(=O)n(-c3c(N(C)C)ccnc3C(C)C)c3nc(-c4c(F)cccc4NC(=O)C4CC4)c(Cl)cc23)C[C@H]1C (single isomer, unassigned) [Example 122-3-1] | 6.82 |
| C=CC(=O)N1[C@H](C)CN(c2nc(=O)n(-c3c(C)cc(N)nc3C(C)C)c3nc(-c4c(O)cccc4F)c(F)cc23)C[C@@H]1C (single isomer, unassigned) [Example 123-1] | 1.25 |
| C=CC(=O)N1[C@H](C)CN(c2nc(=O)n(-c3c(C)cc(N)nc3C(C)C)c3nc(-c4ccccc4F)c(F)cc23)C[C@@H]1C (single isomer, unassigned) [Example 123-3] | 14 |
| C=CC(=O)N1[C@H](C)CN(c2nc(=O)n(-c3c(C)cc(N)nc3C(C)C)c3nc(-c4ccccc4F)c(F)cc23)C[C@@H]1C (single isomer, unassigned) [Example 123-4] | 1 |
| C=CC(=O)N1CCN(c2nc(=O)n(-c3c(C)ccnc3C(C)C)c3nc(-c4c(O)cccc4F)c(F)cc23)C(C)C1C (single isomer, unassigned) [Example 124-14-1, 4-[cis-2,3-dimethyl-4-prop-2-enoyl-piperazin-1-yl]-6-fluoro-7-(2-fluoro-6-hydroxy-phenyl)-1-(2-isopropyl-4-methyl-3-pyridyl)pyrido[2,3-d]pyrimidin-2-one] | 22.2 |
| C=CC(=O)N1CCN(c2nc(=O)n(-c3c(C)ccnc3C(C)C)c3nc(-c4c(O)cccc4F)c(F)cc23)C(C)C1C (single isomer, unassigned) [Example 124-14-2, 4-[cis-2,3-dimethyl-4-prop-2-enoyl-piperazin-1-yl]-6-fluoro-7-(2-fluoro-6-hydroxy-phenyl)-1-(2-isopropyl-4-methyl-3-pyridyl)pyrido[2,3-d]pyrimidin-2-one] | 59.5 |
| C=CC(=O)N1CCN(c2nc(=O)n(-c3c(C)ccnc3C(C)C)c3nc(-c4c(O)cccc4F)c(F)cc23)C(C)C1C (single isomer, unassigned) [Example 124-16-1, 4-[trans-2,3-dimethyl-4-prop-2-enoyl-piperazin-1-yl]-6-fluoro-7-(2-fluoro-6-hydroxy-phenyl)-1-(2-isopropyl-4-methyl-3-pyridyl)pyrido[2,3-d]pyrimidin-2-one] | 1.12 |
| C=CC(=O)N1CCN(c2nc(=O)n(-c3c(C)ccnc3C(C)C)c3nc(-c4c(O)cccc4F)c(F)cc23)C(C)C1C (single isomer, unassigned) [Example 124-16-2, 4-[trans-2,3-dimethyl-4-prop-2-enoyl-piperazin-1-yl]-6-fluoro-7-(2-fluoro-6-hydroxy-phenyl)-1-(2-isopropyl-4-methyl-3-pyridyl)pyrido[2,3-d]pyrimidin-2-one] | 7.37 |
| C=CC(=O)N1C[C@H](C)N(c2nc(=O)n(-c3c(C(C)C)ccnc3C(C)C)c3nc(-c4ccccc4C)c(F)cc23)C[C@H]1C (single isomer, unassigned) [Example 125-5] | 0.46 |
| C=CC(=O)N1C[C@H](C)N(c2nc(=O)n3c4nc(c(Cl)cc24)-c2ccccc2C/C=C/Cc2cccc(C(C)C)c2-3)C[C@H]1C (single isomer, unassigned) [Example 146-1-1] | 9.43 |
| C=CC(=O)N1C[C@H](C)N(c2nc(=O)n3c4nc(c(Cl)cc24)-c2ccccc2C/C=C\Cc2cccc(C(C)C)c2-3)C[C@H]1C (single isomer, unassigned) [Example 146-1-2] | 53.8 |
| C=CC(=O)N1C[C@H](C)N(c2nc(=O)n3c4nc(c(Cl)cc24)-c2ccccc2C/C=C/Cc2ccccc2-3)C[C@H]1C (single isomer, unassigned) [Example 146-3-1] | 204 |
| C=CC(=O)N1C[C@H](C)N(c2nc(=O)n3c4nc(c(Cl)cc24)-c2ccccc2C/C=C\Cc2ccccc2-3)C[C@H]1C (single isomer, unassigned) [Example 146-3-3] | 57.3 |
